Reference: patent US9540400B2, “Compounds as diacylglycerol acyltransferase inhibitors” (GlaxoSmithKline Intellectual Property (No. 2) Limited, priority 2011, dated 2017)

The compounds below were run against T1, Human DGAT1 (Homo sapiens, UniProt O75907) (assay: hDGAT1 fluorescence (CPM) assay, inhibition of CoA product formation). Conditions: human DGAT1 microsomes from Sf9 cells.
T1 construct: made in house; host or cells: Sf9 insect cells (baculovirus); microsomes
T1 sequence (O75907 1-488): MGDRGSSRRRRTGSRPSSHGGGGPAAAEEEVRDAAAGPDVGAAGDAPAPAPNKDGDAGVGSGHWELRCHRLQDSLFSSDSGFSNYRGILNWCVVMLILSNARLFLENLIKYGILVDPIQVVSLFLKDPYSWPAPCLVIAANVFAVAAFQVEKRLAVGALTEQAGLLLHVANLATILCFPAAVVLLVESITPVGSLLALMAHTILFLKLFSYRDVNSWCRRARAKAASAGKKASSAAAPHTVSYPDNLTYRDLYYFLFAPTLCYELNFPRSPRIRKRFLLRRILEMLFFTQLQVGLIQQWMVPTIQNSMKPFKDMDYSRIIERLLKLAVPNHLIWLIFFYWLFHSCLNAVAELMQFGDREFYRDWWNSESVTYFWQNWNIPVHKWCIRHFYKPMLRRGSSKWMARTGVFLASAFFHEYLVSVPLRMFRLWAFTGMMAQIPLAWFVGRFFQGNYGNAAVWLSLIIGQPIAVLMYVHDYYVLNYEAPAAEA
Format: biochemical
Protocol: (§1) Human DGAT1 was expressed in Sf9 insect cells using a baculovirus expression system. Microsomes were prepared and used as enzyme for in vitro inhibition testing in either of two formats measuring production of coenzyme A or tridecanoylglycerol product, respectively. All steps were performed at 21-23° C. All data for DGAT1 inhibition by test compounds were collected under conditions where product formation was linear with reaction time.
For inhibition of CoA product formation, test compounds were prepared in 100% DMSO, diluted 100-fold into assay buffer, and 10 uL added to 96-well half-area plates (Greiner 675076). An equal volume (10 uL) of 3× enzyme in buffer was added and the components incubated for 30 minutes pre-reaction incubation to allow enzyme and test compounds to attain binding equilibrium. […] Some assays were performed with inclusion of didecanoylglycerol in the pre-reaction incubation of test compound and enzyme. DGAT reactions (30 uL) were initiated upon addition of 10 uL of 3× substrate solution. Final reaction conditions consisted of 20 mM HEPES pH 7.5, 2 mM MgCl2, 1 mM CHAPS, 50 uM didecanoylglycerol, 3 uM decanoyl-CoA, 1 ug/mL microsomal protein, and 1% DMSO. Following a 60 minute reaction incubation, reactions were stopped and CoA product derivatized with 30 uL of buffer containing 10 uM {4-[4-(4-amino-7,7-dimethyl-7H-pyrimido[4,5-b][1,4]oxazin-6-yl)phenyl]cyclohexyl}acetic acid and 50 uM 7-diethylamino-3-(4′-maleimidylphenyl)-4-methylcoumarin (CPM). Fluorescence was read using Envision reader at Ex 405 nm/Em 480 nm about 30 minutes after addition of final solution. Inhibition was normalized to controls containing DMSO or 10 uM {4-[4-(4-amino-7,7-dimethyl-7H-pyrimido[4,5-b][1,4]oxazin-6-yl)phenyl]cyclohexyl}acetic acid. IC50s were fitted using GraphPad Prism to a sigmoidal dose response.

Compound	IC50 [nM]
Nc1ncnc2c1C(=O)N(c1cnc3c(ccn3CCO)c1)CCO2 [Example 59, 4-amino-6-[1-(2-hydroxyethyl)-1H-pyrrolo[2,3-b]pyridin-5-yl]-5H,6H,7H,8H-pyrimido[5,4-f][1,4]oxazepin-5-one]	49.5
CN1CCc2cc(N3CCOc4ncnc(N)c4C3=O)ccc2C1=O [Example 6, 6-{4-amino-5-oxo-5H,6H,7H,8H-pyrimido[5,4-f][1,4]oxazepin-6-yl}-2-methyl-1,2,3,4-tetrahydroisoquinolin-1-one]	85.8
CCCn1[nH]c(=O)c2cc(N3CCOc4ncnc(N)c4C3=O)ccc21 [Example 11, 4-Amino-6-(3-oxo-1-propyl-2,3-dihydro-1H-indazol-5-yl)-7,8-dihydropyrimido[5,4-f][1,4]oxazepin-5(6H)-one]	6.3
C=CCn1c2ccc(N3CCOc4ncnc(N)c4C3=O)cc2c(=O)n1Cc1ccccc1 [Example 10, 6-(1-Allyl-2-benzyl-3-oxo-2,3-dihydro-1H-indazol-5-yl)-4-amino-7,8-dihydropyrimido[5,4-f][1,4]oxazepin-5(6H)-one]	42
Nc1ncnc2c1C(=O)N(c1cnc3c(ccn3-c3ccc(C(F)(F)F)cc3)c1)CCO2 [Example 66, 4-Amino-6-(1-(4-(trifluoromethyl)phenyl)-1H-pyrrolo[2,3-b]pyridin-5-yl)-7,8-dihydropyrimido[5,4-f][1,4]oxazepin-5(6H)-one]	42.5
CCCn1ccc2cc(N3CCOc4ncnc(N)c4C3=O)ccc21 [Example 12, 4-Amino-6-(1-propyl-1H-indol-5-yl)-7,8-dihydropyrimido[5,4-f][1,4]oxazepin-5(6H)-one]	16.3
Nc1ncnc2c1C(=O)N(c1ccc3c(c1)CCC(=O)N3CC(=O)O)CCO2 [Example 3, 2-(6-{4-amino-5-oxo-5H,6H,7H,8H-pyrimido[5,4-f][1,4]oxazepin-6-yl}-2-oxo-1,2,3,4-tetrahydroquinolin-1-yl)acetic acid]	372
Nc1ncnc2c1C(=O)N(c1cnc3c(ccn3C3CC3)c1)CCO2 [Example 34, 4-Amino-6-(1-cyclopropyl-1H-pyrrolo[2,3-b]pyridin-5-yl)-7,8-dihydropyrimido[5,4-f][1,4]oxazepin-5(6H)-one]	25.7

Continued, values first:

IC50 [nM]	Compound
10.1	CCCn1c(-c2ccccc2)cc2cc(N3CCOc4ncnc(N)c4C3=O)ccc21 [Example 95, 4-Amino-6-(2-phenyl-1-propyl-1H-indol-5-yl)-7,8-dihydropyrimido[5,4-f][1,4]oxazepin-5(6H)-one]
2.5	Nc1ncnc2c1C(=O)N(c1ccc3c(ccn3-c3ccccc3F)c1)CCO2 [Example 76, 4-amino-6-[1-(2-fluorophenyl)-1H-indol-5-yl]-5H,6H,7H,8H-pyrimido[5,4-f][1,4]oxazepin-5-one]
2.8	Nc1ncnc2c1C(=O)N(c1cnc3c(ccn3-c3cccc(Cl)c3)c1)CCO2 [Example 68, 4-amino-6-[1-(3-chlorophenyl)-1H-pyrrolo[2,3-b]pyridin-5-yl]-5H,6H,7H,8H-pyrimido[5,4-f][1,4]oxazepin-5-one]
873	CC(C)c1cn(-c2ccccc2)c2ccc(N3CCOc4ncnc(N)c4C3=O)cc12 [Example 94, 4-Amino-6-(3-isopropyl-1-phenyl-1H-indol-5-yl)-7,8-dihydropyrimido[5,4-f][1,4]oxazepin-5(6H)-one]
7.3	Nc1ncnc2c1C(=O)N(c1ccc3c(ccn3-c3ccc(C(F)(F)F)cc3)c1)CCO2 [Example 78, 4-amino-6-{1-[4-(trifluoromethyl)phenyl]-1H-indol-5-yl}-5H,6H,7H,8H-pyrimido[5,4-f][1,4]oxazepin-5-one]
20.5	Nc1ncnc2c1C(=O)N(c1ccc3c(ccn3-c3nccs3)c1)CCO2 [Example 82, 4-Amino-6-(1-(thiazol-2-yl)-1H-indol-5-yl)-7,8-dihydropyrimido[5,4-f][1,4]oxazepin-5(6H)-one]
40	Nc1ncnc2c1C(=O)N(c1ccc3c(ccn3-c3ccc(C(F)(F)F)nc3)c1)CCO2 [Example 83, 4-Amino-6-(1-(6-(trifluoromethyl)pyridin-3-yl)-1H-indol-5-yl)-7,8-dihydropyrimido[5,4-f][1,4]oxazepin-5(6H)-one]
55.1	Nc1ncnc2c1C(=O)N(c1ccc3c(ccn3-c3cnccn3)c1)CCO2 [Example 87, 4-amino-6-[1-(pyrazin-2-yl)-1H-indol-5-yl]-5H,6H,7H,8H-pyrimido[5,4-f][1,4]oxazepin-5-one]

What follows are compounds tested against T1, Human DGAT1 (assay: hDGAT1 lipid extraction (LE) assay, inhibition of triacylglycerol product formation). Conditions: human DGAT1 microsomes from Sf9 cells; radiolabelled tridecanoylglycerol extraction.
Format: biochemical
Protocol: as §1
For inhibition of triacylglycerol product formation, 11 uL reactions were run in white Polyplate-384 (PerkinElmer6007300) starting with a 30 minute pre-reaction incubation of 5 uL of 2.2× enzyme and 1 uL of 100% DMSO containing test compound or control compound, {4-[4-(4-amino-7,7-dimethyl-7H-pyrimido[4,5-b][1,4]oxazin-6-yl)phenyl]cyclohexyl}acetic acid. Some assays were performed with inclusion of didecanoylglycerol in the pre-reaction incubation of test compounds and enzyme. Reactions were initiated after 30 minute pre-reaction incubation via addition of 5 uL of 2.2× substrate. Final reaction conditions consisted of 50 mM HEPES pH 7.5, 2 mM MgCl2, 1 mM CHAPS, 25 uM didecanoylglycerol, 0.5 uM decanoyl-CoA, 0.3 nCi/uL [^14C]-decanoyl-CoA or 0.5 nCi/uL [^3H]-decanoyl-CoA, 0.05-4 ug/mL microsomal protein, and 1% DMSO. Following 60 minute reaction incubation, reactions were stopped with 40 uL of 45% isopropanol and 50 mM sodium carbonate in water and mixed. Extraction of tridecanoylglycerol product was accomplished via addition of 30 uL Microscint-E (Perkin Elmer) and 2 hours of incubation (sealed). Plates were read on a Microbeta Microplate reader. Inhibition was normalized to controls containing DMSO or 10 uM {4-[4-(4-amino-7,7-dimethyl-7H-pyrimido[4,5-b][1,4]oxazin-6-yl)phenyl]cyclohexyl}acetic acid. IC50s were fitted using GraphPad Prism to a sigmoidal dose response.

Compound	IC50 [nM]
CCCn1cc(C(=O)C(F)(F)F)c2cc(N3CCOc4ncnc(N)c4C3=O)ccc21 [Example 63, 4-Amino-6-(1-propyl-3-(2,2,2-trifluoroacetyl)-1H-indol-5-yl)-7,8-dihydropyrimido[5,4-f][1,4]oxazepin-5(6H)-one]	2.3
Nc1ncnc2c1C(=O)N(c1ccc3c(ccn3-c3ccccc3)c1)CCO2 [Example 65, 4-Amino-6-(1-phenyl-1H-indol-5-yl)-7,8-dihydropyrimido[5,4-f][1,4]oxazepin-5(6H)-one]	3.9
CS(=O)(=O)n1ccc2cc(N3CCOc4ncnc(N)c4C3=O)ccc21 [Example 60, 4-amino-6-(1-methanesulfonyl-1H-indol-5-yl)-5H,6H,7H,8H-pyrimido[5,4-f][1,4]oxazepin-5-one]	14.8
CCCn1cc(C(C)(OC)C(F)(F)F)c2cc(N3CCOc4ncnc(N)c4C3=O)ccc21 (centres unmarked) [Example 64, 4-amino-6-[1-propyl-3-(1,1,1-trifluoro-2-methoxypropan-2-yl)-1H-indol-5-yl]-5H,6H,7H,8H-pyrimido[5,4-f][1,4]oxazepin-5-one]	8.8
Nc1ncnc2c1C(=O)N(c1cnc3c(ccn3CC(F)F)c1)CCO2 [Example 33, 4-Amino-6-(1-(2,2-difluoroethyl)-1H-pyrrolo[2,3-b]pyridin-5-yl)-7,8-dihydropyrimido[5,4-f][1,4]oxazepin-5(6H)-one]	23.3
4-amino-6-(6-fluoro-1-phenyl-1H-indol-5-yl)-5H,6H,7H,8H-pyrimido[5,4-f][1,4]oxazepin-5-one [Example 96]	7.3

Continued, values first:

IC50 [nM]	Compound
623	Nc1ncnc2c1C(=O)N(c1ccc3nc[nH]c(=O)c3c1)CCO2 [Example 98, 4-Amino-6-(4-oxo-3,4-dihydroquinazolin-6-yl)-7,8-dihydropyrimido[5,4-f][1,4]oxazepin-5(6H)-one]
3.6	Nc1ncnc2c1C(=O)N(c1ccc3c(ccn3-c3cccc(C(F)(F)F)c3)c1)CCO2 [Example 80, 4-amino-6-{1-[3-(trifluoromethyl)phenyl]-1H-indol-5-yl}-5H,6H,7H,8H-pyrimido[5,4-f][1,4]oxazepin-5-one]
9.3	Nc1ncnc2c1C(=O)N(c1cnc3c(ccn3-c3ccccc3)c1)CCO2 [Example 72, 4-amino-6-{1-phenyl-1H-pyrrolo[2,3-b]pyridin-5-yl}-5H,6H,7H,8H-pyrimido[5,4-f][1,4]oxazepin-5-one]
4.5	Nc1ncnc2c1C(=O)N(c1ccc3c(ccn3-c3ccc(F)c(F)c3)c1)CCO2 [Example 74, 4-amino-6-[1-(3,4-difluorophenyl)-1H-indol-5-yl]-5H,6H,7H,8H-pyrimido[5,4-f][1,4]oxazepin-5-one]
